Results taken from the NIST ThermoML archive (doi:10.1016/j.jct.2017.07.016).

Assay: xn = mol fraction of the nth substance listed
Conditions: 96.7 kPa, Liquid; for viscosity: Capillary tube (Ostwald / Ubbelohde) method; for mass density: Vibrating tube method

CCCCCCn1cc[n+](C)c1.[Cl-] [1-hexyl-3-methylimidazolium chloride] + c1ccncc1
Conditions	mass density [kg/m3]	viscosity [mPa·s]
303.15 K, x1 = 0.145	1000.09	3.442
303.15 K, x1 = 0.281	1013.46	12.9
303.15 K, x1 = 0.369	1019.3	27.09
303.15 K, x1 = 0.477	1025.04	89.47
303.15 K, x1 = 0.608	1029.07	266.74
303.15 K, x1 = 0.778	1033.09	1015.3
303.15 K, x1 = 0.877	1034.58	1617.5
303.15 K, x1 = 1	1036.07	5718.5
308.15 K, x1 = 0.145	995.92	3.081
308.15 K, x1 = 0.281	1009.71	11.03
308.15 K, x1 = 0.369	1015.8	22.93
308.15 K, x1 = 0.477	1021.74	68.74
308.15 K, x1 = 0.608	1025.91	192.89
308.15 K, x1 = 0.778	1030.09	686.42
308.15 K, x1 = 0.877	1031.66	1126
308.15 K, x1 = 1	1033.22	3430.8
313.15 K, x1 = 0.145	991.76	2.785
313.15 K, x1 = 0.281	1006	9.532
313.15 K, x1 = 0.369	1012.3	19.12
313.15 K, x1 = 0.477	1018.45	53.91
313.15 K, x1 = 0.608	1022.78	144.2
313.15 K, x1 = 0.778	1027.11	476.57
313.15 K, x1 = 0.877	1028.74	773.43
313.15 K, x1 = 1	1030.38	2146.1
318.15 K, x1 = 0.145	987.59	2.533
318.15 K, x1 = 0.281	1002.31	8.293
318.15 K, x1 = 0.369	1008.82	16.07
318.15 K, x1 = 0.477	1015.17	43.07
318.15 K, x1 = 0.608	1019.67	109.94
318.15 K, x1 = 0.778	1024.17	341.19
318.15 K, x1 = 0.877	1025.86	528.89
318.15 K, x1 = 1	1027.56	1390.4
323.15 K, x1 = 0.145	983.43	2.307
323.15 K, x1 = 0.281	998.61	7.283
323.15 K, x1 = 0.369	1005.33	13.71
323.15 K, x1 = 0.477	1011.9	35.05
323.15 K, x1 = 0.608	1016.57	85.19
323.15 K, x1 = 0.778	1021.24	249.82
323.15 K, x1 = 0.877	1022.99	376.53
323.15 K, x1 = 1	1024.75	928.1
328.15 K, x1 = 0.145	979.27	2.128
328.15 K, x1 = 0.281	994.88	6.442
328.15 K, x1 = 0.369	1001.86	11.78
328.15 K, x1 = 0.477	1008.64	28.97
328.15 K, x1 = 0.608	1013.48	67.45
328.15 K, x1 = 0.778	1018.31	185.55
328.15 K, x1 = 0.877	1020.12	273.63
328.15 K, x1 = 1	1021.92	638.79
333.15 K, x1 = 0.145	975.09	1.956
333.15 K, x1 = 0.281	991.21	5.738
333.15 K, x1 = 0.369	998.39	10.23
333.15 K, x1 = 0.477	1005.4	24.13
333.15 K, x1 = 0.608	1010.39	53.7
333.15 K, x1 = 0.778	1015.38	141.51
333.15 K, x1 = 0.877	1017.26	203.81
333.15 K, x1 = 1	1019.13	453.59
338.15 K, x1 = 0.145	970.94	1.793
338.15 K, x1 = 0.281	987.55	5.141
338.15 K, x1 = 0.369	994.92	8.972
338.15 K, x1 = 0.477	1002.17	20.39
338.15 K, x1 = 0.608	1007.32	43.75
338.15 K, x1 = 0.778	1012.47	109.4
338.15 K, x1 = 0.877	1014.43	154.83
338.15 K, x1 = 1	1016.38	327.52
343.15 K, x1 = 0.145	966.81	1.686
343.15 K, x1 = 0.281	983.89	4.636
343.15 K, x1 = 0.369	991.46	7.907
343.15 K, x1 = 0.477	998.94	17.36
343.15 K, x1 = 0.608	1004.24	35.95
343.15 K, x1 = 0.778	1009.55	86.53
343.15 K, x1 = 0.877	1011.6	120.81
343.15 K, x1 = 1	1013.65	243.04
348.15 K, x1 = 0.145	962.62	1.57
348.15 K, x1 = 0.281	980.23	4.198
348.15 K, x1 = 0.369	988.01	6.978
348.15 K, x1 = 0.477	995.69	14.96
348.15 K, x1 = 0.608	1001.17	30.11
348.15 K, x1 = 0.778	1006.66	68.87
348.15 K, x1 = 0.877	1008.78	94.01
348.15 K, x1 = 1	1010.91	183.45
353.15 K, x1 = 0.145	958.42	1.451
353.15 K, x1 = 0.281	976.57	3.822
353.15 K, x1 = 0.369	984.56	6.279
353.15 K, x1 = 0.477	992.4	13
353.15 K, x1 = 0.608	998.08	25.29
353.15 K, x1 = 0.778	1003.77	56.47
353.15 K, x1 = 0.877	1005.97	75.17
353.15 K, x1 = 1	1008.18	140.06
